Data as given in ChEMBL document CHEMBL5579875, “Discovery of VU6008677: A Structurally Distinct Tricyclic M4 Positive Allosteric Modulator with Improved CYP450 Profile” (ACS Med Chem Lett, 2024).

Tests used:
[1] = Plasma protein binding in rat assessed as unbound fraction at 5 uM incubated for 6 hrs by LC-MS/MS analysis; type: ADME, cell-free
[2] = Plasma protein binding in human assessed as unbound fraction at 5 uM incubated for 6 hrs by LC-MS/MS analysis; type: ADME, cell-free
[3] = Unbound fraction in rat brain homogenate at 1 uM incubated for 6 hrs by LC-MS/MS analysis; type: ADME, tissue-based

| Fu [1] | Fu [2] | Fu [3] | Compound |
| --- | --- | --- | --- |
| 0.01 | 0.004 | – | Cc1nc2sc3c(NC4CC4)ncnc3c2c(C)c1Cl.Cl |
| 0.01 | 0.01 | 0.005 | Cc1c(Cl)cnc2sc3c(NC4CC(c5ccncc5)C4)ncnc3c12 (stereo not given) |
